In PubChem BioAssay (NCI):
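Where inhibition never reached the appropriate level, the endpoint shown equals the highest concentration tested. Otherwise, values were interpolated linearly from a five-concentration, 48-hour dose response in 96-well plates. Abbreviation: GI50, concentration required for 50% inhibition of growth. TGI: total growth inhibition.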

Legend:
Experiment in all cases: DTP human tumour cell line panel, 48 h
[1] = system: RPMI-8226 leukemia
[2] = system: LOX IMVI melanoma
[3] = system: SK-MEL-2 melanoma
[4] = system: NCI-H226 lung
[5] = system: SK-MEL-5 melanoma
[6] = system: SNB-19 CNS
[7] = system: CCRF-CEM leukemia
[8] = system: MOLT-4 leukemia
[9] = system: U251 CNS
[10] = system: DU-145 prostate
[11] = system: M14 melanoma
[12] = system: A498 renal
[13] = system: A549 NSCLC
[14] = system: SF-268 CNS
[15] = system: BT-549 breast
[16] = system: KM12 colon
[17] = system: SW-620 colon
[18] = system: T-47D breast
[19] = system: SK-MEL-28 melanoma
[20] = system: HL-60(TB) leukemia
[21] = system: SN12C renal
[22] = system: HOP-92 NSCLC
[23] = system: K-562 leukemia
[24] = system: 786-0 renal
[25] = system: SF-295 CNS
[26] = system: NCI-H23 lung
[27] = system: HCC-2998 colon
[28] = system: ACHN renal

Q: With Cc1ccc(S(=O)(=O)NCCCNc2nc(Nc3ccc(N4CCN(C)CC4)cc3)nc3ccsc23)cc1 as the molecule, how does the GI50 [1] read?
A: Its GI50 is 2.5 µM.

Q: And the TGI [1]?
A: The TGI was 8.04 µM.

Q: And the GI50 [2]?
A: The GI50 was 1.51 µM.

Q: What about the TGI [2] of the same molecule?
A: Its TGI is 3.06 µM.

Q: What about the GI50 [3] of the same molecule?
A: Its GI50 is 15.1 µM.

Q: What about the TGI [3] of the same molecule?
A: Its TGI is 29 µM.

Q: What about the GI50 [4] of the same molecule?
A: Its GI50 is 8.46 µM.

Q: And the TGI [4]?
A: Its TGI is 21.8 µM.

Q: What about the GI50 [5] of the same molecule?
A: The GI50 was 12.9 µM.

Q: And the TGI [5]?
A: Its TGI is 25.6 µM.

Q: And the GI50 [6]?
A: The GI50 was 15.9 µM.

Q: What about the TGI [6] of the same molecule?
A: Its TGI is 32.4 µM.

Q: What about the GI50 [7] of the same molecule?
A: Its GI50 is 2.73 µM.

Q: And the TGI [7]?
A: Its TGI is 22.9 µM.

Q: What about the GI50 [8] of the same molecule?
A: The GI50 was 3.43 µM.

Q: What about the TGI [8] of the same molecule?
A: Its TGI is 28.7 µM.

Q: What about the GI50 [9] of the same molecule?
A: The GI50 was 3.83 µM.

Q: And the TGI [9]?
A: The TGI was 18.7 µM.

Q: And the GI50 [10]?
A: Its GI50 is 16.4 µM.

Q: And the TGI [10]?
A: The TGI was 40.6 µM.

Q: What about the GI50 [11] of the same molecule?
A: The GI50 was 1.6 µM.

Q: And the TGI [11]?
A: Its TGI is 3.13 µM.

Q: And the GI50 [12]?
A: The GI50 was 19.4 µM.

Q: What about the TGI [12] of the same molecule?
A: Its TGI is 34.5 µM.

Q: What about the GI50 [13] of the same molecule?
A: The GI50 was 14.9 µM.

Q: And the TGI [13]?
A: Its TGI is 31.5 µM.

Q: What about the GI50 [14] of the same molecule?
A: Its GI50 is 9.87 µM.

Q: And the TGI [14]?
A: The TGI was 46 µM.

Q: What about the GI50 [15] of the same molecule?
A: The GI50 was 3.56 µM.

Q: And the TGI [15]?
A: Its TGI is 16.4 µM.

Q: And the GI50 [16]?
A: Its GI50 is 14.3 µM.

Q: What about the TGI [16] of the same molecule?
A: The TGI was 47.9 µM.

Q: And the GI50 [17]?
A: Its GI50 is 12.5 µM.

Q: And the TGI [17]?
A: Its TGI is 28 µM.

Q: And the GI50 [18]?
A: The GI50 was 13.3 µM.

Q: And the TGI [18]?
A: Its TGI is 37.2 µM.

Q: What about the GI50 [19] of the same molecule?
A: Its GI50 is 6.5 µM.

Q: What about the TGI [19] of the same molecule?
A: The TGI was 19.4 µM.

Q: And the GI50 [20]?
A: Its GI50 is 2.01 µM.

Q: What about the TGI [20] of the same molecule?
A: Its TGI is 5.18 µM.

Q: And the GI50 [21]?
A: Its GI50 is 13.6 µM.

Q: And the TGI [21]?
A: The TGI was 28 µM.

Q: And the GI50 [22]?
A: Its GI50 is 1.94 µM.

Q: And the TGI [22]?
A: Its TGI is 11.6 µM.

Q: What about the GI50 [23] of the same molecule?
A: The GI50 was 2.56 µM.

Q: And the TGI [23]?
A: Its TGI is over 100 µM.

Q: And the GI50 [24]?
A: Its GI50 is 1.77 µM.

Q: And the TGI [24]?
A: Its TGI is 3.42 µM.

Q: And the GI50 [25]?
A: Its GI50 is 9.03 µM.

Q: What about the TGI [25] of the same molecule?
A: The TGI was 21.6 µM.

Q: What about the GI50 [26] of the same molecule?
A: The GI50 was 12.2 µM.

Q: And the TGI [26]?
A: The TGI was 26.5 µM.

Q: What about the GI50 [27] of the same molecule?
A: Its GI50 is 5.34 µM.

Q: And the TGI [27]?
A: Its TGI is 17.8 µM.

Q: And the GI50 [28]?
A: The GI50 was 12 µM.
